This is an account of results in PMC11596563, “N-Aryl Benzimidazole and Benzotriazole Derivatives and Their Hybrids as Cytotoxic Agents: Design, Synthesis and Structure–Activity Relationship Studies” (Molecules, 2024).

One may read the IC50 as the concentration needed to halve the response being measured. A word on the melting point: it is the temperature of the solid-liquid transition.

Structures are written as SMILES.

Data set [1] deals with SH-SY5Y. The data set is described as follows: cells. As to conditions: Homo sapiens, 24 h, read-out: IC50 of the cytotoxic effect, SH-SY5Y.
Method: (§1) At the first stage of biological testing, we studied the effect of the synthesized compounds on the survival of cells of both tumoral and normal origin. […] In our work, the cytotoxic profile of the synthesized molecules was assessed using the MTT test, based on the ability of a colorless tetrazolium salt (3-[4,5-dimethylthiazol-2-yl]-2,5-diphenyltetrazolium bromide, MTT) to be reduced to colored formazan in the presence of the mitochondrial enzymes of living cells. For this purpose, a number of cell lines of tumoral origin (SH-SY5Y, A549, MCF-7 and SW-480), as well as normal origin (Hek-293), were used.
(§2) For the experiments, we used tumor cell cultures SH-SY5Y, human neuroblast-like cells, A549, human lung adenocarcinoma, MCF-7, human mammary adenocarcinoma, SW-480 and human colorectal adenocarcinoma, as well as cells of normal origin obtained from human embryonic kidneys, Hek-293.
(§3) All cells were cultured in the Dulbecco Modified Eagle’s Medium (DMEM) with a high glucose content, 10% fetal bovine serum and 1% penicillin-streptomycin as an antibiotic, in a moist incubator with 5% CO2 at 37°C.
(§4) To measure cellular metabolic activity, a colorimetric analysis was performed using the MTT reagent (3-(4,5–dimethylthiazol-2-yl)-2,5-diphenyltetrazolium bromide), which is an inhibitor of viable cells [73, 74].
(§5) • Briefly, cells in the logarithmic growth phase were digested and resuspended to adjust the cell density. The cells were then seeded in 96-well plates at a density of 10,000 cells per well. After 24 h of the incubation of the cells under the standard conditions described above (for the purpose of cell adhesion), the cells were treated with the synthesized compounds at different concentrations (0.1 to 100 µM) or a vehicle alone as a control (1% DMSO) for 24 h. After the incubation time of the cells with synthesized compounds, 5 mg/mL of MTT was added to the cells and incubated for 2 h at 37 °C. Next, the supernatant was discarded; after that, the formazan crystals were dissolved in a DMSO and the absorbance of each well was measured at 570 nm using a multifunctional microplate reader, Cytation3 (Biotech Tools Inc., Winooski, USA).
In data set [2] the test system is SW-480. Description: MTT test, cytotoxic effect. The class given is cell-based. As to conditions: Homo sapiens, SW480, 24 h treatment, 0.1 to 100 µM, concentration that causes 50% cell death. (In general: Formazan colour is commonly taken as a measure of viable cells.)
Method: as §1, §2, §3, §4, §5
The test system of data set [3] is MCF-7. The data set is described as follows: MTT test, cytotoxic effect. The format is cell-based. As to conditions: Homo sapiens, MCF7, 24 h treatment, 0.1 to 100 µM, concentration that causes 50% cell death.
Method: as §1, §2, §3, §4, §5
A short description of data set [4]: MTT test, cytotoxic effect on cells of normal origin. The class given is cell-based, human. As to conditions: human, Hek-293 cells (normal origin), 24 h treatment, 0.1 to 100 µM, normal cells, concentration that causes 50% cell death.
Method: as §1, §2, §3, §4, §5
Data set [5] relates to Fe(II)-induced lipid peroxidation (LPO) of rat brain homogenate. Description: Fe(II)-induced lipid peroxidation, modified TBARS test. As to conditions: Fe(II) 500 μM, rat brain homogenate 2 mg/mL; for IC50: 1 to 300 μM, read-out: IC50 of the lipid peroxidation inhibitory effect; for decrease in the level of malondialdehyde: compounds at 100 μM. The format is biochemical. Here is the method: In our work, the antioxidant status of the compounds was determined by their ability to influence the process of Fe(II)-induced lipid peroxidation (LPO) of rat brain homogenate (2 mg/mL). The effect of the substances on LPO was studied using a modified version of the TBA test in a plate format. This test is based on the reaction of 2-thiobarbituric acid with intermediate LPO products, resulting in the formation of a colored trimethine complex, the main role in the formation of which belongs to malondialdehyde. […] This was expressed in a decrease in the level of malondialdehyde in the system by 70, 79 and 71%, respectively, tending to the values of the well-known antioxidant Trolox. Additionally, the IC50 values of the lipid peroxidation inhibitory effect were calculated for these molecules, the values of which are presented in Figure 2B.
To obtain rat brain homogenate, an animal previously anesthetized in a CO2 chamber was decapitated using a guillotine. The brain was homogenized in a buffer containing KCl (120 mM) and HEPES (20 mM), pH = 7.4 at 4 ° C and centrifuged at 1500 g to obtain a supernatant.
The intensity of the lipid peroxidation of the rat brain homogenate was evaluated using a modified TBARS test. […] In the wells of the negative control, the Fe(II) was replaced with water; in samples with a positive control, a solvent was introduced instead of the studied compounds.
At the end of incubation, a TBA reagent ([…] thiobartituric and 1% trichloroacetic acids dissolved in 0.25 N HCl) was added to each well and heated at 90 °C for 90 min.

A short description of data set [6]: MTT test, summary over all tested cell lines. The format is cell-based, human. As to conditions: human; all cells, including those of normal origin, Hek-293; read-out: IC50 values of the cytotoxic effect, range over all cells.
Method: as §1
(§6) For the experiments, we used tumor cell cultures SH-SY5Y, human neuroblast-like cells, A549, human lung adenocarcinoma, MCF-7, human mammary adenocarcinoma, SW-480 and human colorectal adenocarcinoma, as well as cells of normal origin obtained from human embryonic kidneys, Hek-293. The cell lines were obtained from the collection of the Institute of Cytology, Russian Academy of Sciences (St. Petersburg, Russia).
as §3, §4
(§7) • Briefly, cells in the logarithmic growth phase were digested and resuspended to adjust the cell density. The cells were then seeded in 96-well plates at a density of 10,000 cells per well. […] Next, the supernatant was discarded; after that, the formazan crystals were dissolved in a DMSO and the absorbance of each well was measured at 570 nm using a multifunctional microplate reader, Cytation3 (Biotech Tools Inc., Winooski, USA).
The test system of data set [7] is A549 cells. The data set is described as follows: Wound-healing assay (scratch test). The format is cell-based, human. As to conditions: 1 μM; for migration capacity, decrease in the scratch width vs control: 24 h after the damage. The source says:
It is also well known that migration and proliferation of cancer cells are key processes involved in the metastatic cascade of malignant neoplasms. In turn, the ability of therapeutic agents to inhibit these processes is considered a promising property of antitumor agents. In this regard, in order to assess the possible antimetastatic potential of cytotoxic diphenylamines 6b, c and d, we analyzed the effect of the substances on the migration and proliferation of tumor cells A549 in a scratch test.
Based on a preliminary series of experiments, 1 μM was chosen as the concentration used in this test, excluding the intrinsic cytotoxic effect of the substances. […] Thus, the data obtained 24 h after the damage was applied allowed us to evaluate the migration capacity of the cells, minimizing the contribution of cell proliferation.
The migration activity of A549 cells was determined by the wound-healing assay (scratch test). To do this, cells (15,000 cells per well) were seeded in a 96-well plate and cultured under the standard conditions described above. After 24 h of incubation, when the cells became 90% confluent, the medium was selected and an identical scratch wound across the center of each well was made by a 200 µL pipette tip.
To remove detached cells, the cell monolayer was washed twice with PBS; after that, the growth media and test compounds at 1 µM (or 1% DMSO as a solvent) were added to each well. A phase contrast microscope at a ×40 magnification was used to take photomicrographs after making the wound and then 24 h, 48 h and 72 h later.
The analysis of the obtained images was calculated using the open-source program ImageJ [80] and a special module: Wound_healing_size_tool.

In data set [8] the test system is A549. Description: MTT test, cytotoxic effect. As to conditions: Homo sapiens, 24 h treatment, 0.1 to 100 µM, concentration that causes 50% cell death. The class given is cell-based.
Method: as §1, §2, §3, §4, §5
Data set [9] has as its system Hek-293. The data set is described as follows: MTT test, cytotoxic effect on cells of normal origin. The format is cell-based, human. As to conditions: Hek-293.
Method: as §1, §2, §3, §4, §5
The test system of data set [10] is all the tested cell lines (SH-SY5Y, A549, MCF-7, SW-480, Hek-293). Description: MTT test, summary over all tested cell lines. The class given is cell-based, human. As to conditions: MTT, range of concentrations studied (0.1 to 100 µM).
Method: as §1, §6, §3, §4, §7

Regarding `Nc1cc(C(F)(F)F)ccc1Nc1cc(Cl)ccc1-n1nnc2ccccc21` [6d, N-[2-(1H-benzotriazol-1-yl)-5-chlorophenyl]-2-amino-4-(trifluoromethyl)aniline], the melting point is 191 to 194 °C. Moreover, the IC50 in data set [1] was 31.56 ± 0.07 µM. The same compound displayed an IC50 in data set [2] of 40.38 ± 0.01 µM. This compound registered an IC50 in data set [3] of 33.8 ± 0.64 µM. This compound yielded a half-maximal inhibitory concentration (IC50) at 24 h in data set [4] of 41.39 ± 0.05 µM. In addition, in [5], the IC50 was found to be 2.4 ± 0.05 µM and the “decrease in the level of malondialdehyde” value is given as 71%. For the same compound, the IC50 at 24 h in [6] was 31 to 41 µM. Further, the “migration capacity, decrease in the scratch width vs control” value (shortened to “migration capacity, decrease”) in [7] is “did not find any differences”. This compound also displayed an IC50 in data set [8] of 41.4 ± 0.79 µM.

The compound `CCOC(=O)c1ccc(Nc2cc(C(F)(F)F)ccc2-n2nnc3ccccc32)c(N)c1` [6c, Ethyl 3-amino-4-[2-(1H-benzotriazol-1-yl)-5-(trifluoromethyl)anilino]benzoate] returned a melting point of 178 to 181 °C. For the same compound, the IC50 in [1] is 20.94 ± 0.13 µM. Moreover, the IC50 in data set [2] was at least 100 µM. Half-maximal inhibition in data set [3] (IC50) required 77.05 ± 0.67 µM. In addition, in data set [9], the “cytotoxic effect on cell line of normal origin” value is recorded as “did not exert a cytotoxic effect”. The IC50 at 24 h in [4] was at least 100 µM. In data set [5], the IC50 was found to be 1.11 ± 0.13 µM and the “decrease in the level of malondialdehyde” value stood at 79%. Further, the “migration capacity, decrease” value in [7] was “did not find any differences”. In addition, the “ability to suppress the migratory activity of A549 tumor cells” value in data set [7] (conclusion) was “failed to demonstrate the ability to suppress the migratory activity”. 37.68 ± 0.2 µM corresponded to half-maximal inhibition in [8] (IC50).

`Nc1cc(C(F)(F)F)ccc1Nc1cc(C(F)(F)F)ccc1-n1nnc2ccccc21` [6b, N-[2-(1H-benzotriazol-1-yl)-5-(trifluoromethyl)phenyl]-2-amino-4-(trifluoromethyl)aniline] registered a melting point of 170 to 173 °C. For the same compound, the IC50 in data set [1] was determined as 25.98 ± 0.17 µM. In addition, half-maximal inhibition in [2] (IC50) was put at 25.09 ± 0.24 µM. Further, the IC50 in data set [3] was 23.29 ± 0.12 µM. In addition, in [4], the IC50 at 24 h is 22.4 ± 0.41 µM. In data set [5], the IC50 is 1.68 ± 0.08 µM and the “decrease in the level of malondialdehyde” value was 70%. Also, in data set [6], the IC50 at 24 h lay within 22 to 26 µM. In addition, the “unhealed defect area remaining from the original vs control” value in data set [7] (48 and 72 h) was “significantly increase”. For the same compound, the “migration capacity, decrease” value in data set [7] is listed as “did not find any differences”. For the same compound, the “proliferation coefficient of cells vs control” value in [7] (A549) is listed as “significant decrease”. In [8], this compound had an IC50 of 26.28 ± 0.02 µM.

As to `Nc1cc(C(F)(F)F)ccc1Nc1cc(C(F)(F)F)ccc1-n1cnc2ccccc21` [6a, N-[2-(1H-benzimidazol-1-yl)-5-(trifluoromethyl)phenyl]-2-amino-4-(trifluoromethyl)aniline], the melting point lay in the range of 205 to 207 °C. Further, in data set [1], the half-maximal inhibitory concentration (IC50) is at least 100 µM. For the same compound, the IC50 in data set [2] was at least 100 µM. For the same compound, the 50% inhibitory concentration (IC50) in data set [3] was at least 100 µM. The compound further had an IC50 at 24 h in data set [4] of at least 100 µM. The “toxic effect on the tested cell lines” value in data set [10] was “not toxic”. Besides, the IC50 in [8] is at least 100 µM.
